Laboratory results as given in patent US10435396B2, “2-substituted indazoles, methods for producing same, pharmaceutical preparations that contain same, and use of same to produce drugs” (Bayer Pharma Aktiengesellschaft, priority 2016, dated 2019).

The compounds below were run against human IRAK4 (Homo sapiens (Human), UniProt Q9NWZ3) (assay: IRAK4 kinase assay (IRAK4 TR-FRET assay)). Settings: 1 mM ATP.
Assay type: biochemical
Summary of the method: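 GST-human IRAK4 (insect-cell expressed, ~0.2 nM) was prebound 15 min with compound, then reacted 45 min at 22° C with 1 mM ATP and 0.5 μM biotinylated peptide in HEPES pH 7.5. Phosphopeptide detected by TR-FRET (665/620 nm). IC50 from 4-parameter fit over 11 concentrations, 20 μM-0.073 nM.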

human IRAK4, sequence (Q9NWZ3 whole entry): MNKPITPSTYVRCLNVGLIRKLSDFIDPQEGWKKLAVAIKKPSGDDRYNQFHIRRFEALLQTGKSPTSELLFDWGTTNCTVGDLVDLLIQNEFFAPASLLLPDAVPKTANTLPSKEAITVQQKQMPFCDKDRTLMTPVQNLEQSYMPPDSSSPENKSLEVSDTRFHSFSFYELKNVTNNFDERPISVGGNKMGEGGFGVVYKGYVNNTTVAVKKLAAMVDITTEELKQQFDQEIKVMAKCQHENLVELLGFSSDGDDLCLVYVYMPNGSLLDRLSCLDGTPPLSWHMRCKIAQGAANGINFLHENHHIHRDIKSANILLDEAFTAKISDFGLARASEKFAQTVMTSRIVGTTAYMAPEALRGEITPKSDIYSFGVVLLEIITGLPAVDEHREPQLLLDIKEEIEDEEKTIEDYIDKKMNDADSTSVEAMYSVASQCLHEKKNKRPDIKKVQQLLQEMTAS

Compound | IC50
CC(C)(O)c1cc2nn(C3CCS(=O)(=O)CC3)cc2cc1NC(=O)c1cccc(C(F)(F)F)n1 [Example 44, N-[2-(1,1-Dioxidotetrahydro-2H-thiopyran-4-yl)-6-(2-hydroxypropan-2-yl)-2H-indazol-5-yl]-6-(trifluoromethyl)pyridine-2-carboxamide] | 5 nM
COc1cc2nn(C3CCOCC3)cc2cc1NC(=O)c1cccc(C(C)(C)O)n1 [Example 28, 6-(2-Hydroxypropan-2-yl)-N-[6-methoxy-2-(tetrahydro-2H-pyran-4-yl)-2H-indazol-5-yl]pyridine-2-carboxamide] | 3 nM
COc1cc2nn(C3CCOCC3)cc2cc1NC(=O)c1cccc(C(F)F)n1 [Example 23, 6-(Difluoromethyl)-N-[6-methoxy-2-(tetrahydro-2H-pyran-4-yl)-2H-indazol-5-yl]pyridine-2-carboxamide] | 1 nM
COc1cc2nn(C3CCN(CCO)CC3)cc2cc1NC(=O)c1cccc(C(F)(F)F)n1 [Example 13, N-{2-[1-(2-Hydroxyethyl)piperidin-4-yl]-6-methoxy-2H-indazol-5-yl}-6-(trifluoromethyl)pyridine-2-carboxamide] | 1 nM
COc1cc2nn([C@@H]3C[C@@H]4C[C@H]3CN4C)cc2cc1NC(=O)c1cccc(C(F)(F)F)n1 (relative stereo) [Example 18, rel-N-{6-Methoxy-2-[(1S,4S,5R)-2-methyl-2-azabicyclo[2.2.1]hept-5-yl]-2H-indazol-5-yl}-6-(trifluoromethyl)pyridine-2-carboxamide] | 2 nM
COc1cc2nn(C3CCN(C(=O)CO)CC3)cc2cc1NC(=O)c1cccc(C(F)(F)F)n1 [Example 5, N-[2-(1-Glycoloylpiperidin-4-yl)-6-methoxy-2H-indazol-5-yl]-6-(trifluoromethyl)pyridine-2-carboxamide] | 2 nM
COc1cc2nn(C3CCOCC3)cc2cc1NC(=O)c1cccc(N2CCOCC2)n1 [Example 24, N-[6-Methoxy-2-(tetrahydro-2H-pyran-4-yl)-2H-indazol-5-yl]-6-(morpholin-4-yl)pyridine-2-carboxamide] | 2 nM
COc1cc2nn(C3CCN(C4COC4)CC3)cc2cc1NC(=O)c1cccc(C(F)(F)F)n1 [Example 10, N-{6-Methoxy-2-[1-(oxetan-3-yl)piperidin-4-yl]-2H-indazol-5-yl}-6-(trifluoromethyl)pyridine-2-carboxamide] | 3 nM
CC(C)(O)c1cc2nn(C3CCNCC3)cc2cc1NC(=O)c1cccc(C(F)(F)F)n1 [Example 46, N-[6-(2-Hydroxypropan-2-yl)-2-(piperidin-4-yl)-2H-indazol-5-yl]-6-(trifluoromethyl)pyridine-2-carboxamide] | 3 nM

The next lines start with the values.

IC50 | Compound
4 nM | COc1cc2nn(C3CCS(=N)(=O)CC3)cc2cc1NC(=O)c1cccc(C(F)(F)F)n1 (single isomer, unassigned) [Example 20, N-[2-(1-Imino-1-oxidohexahydro-1λ^4-thiopyran-4-yl)-6-methoxy-2H-indazol-5-yl]-6-(trifluoromethyl)pyridine-2-carboxamide]
2 nM | COc1cc2nn(C3CC[S+]([O-])CC3)cc2cc1NC(=O)c1cccc(C(F)(F)F)n1 (racemic) [Example 12, rac-N-[6-Methoxy-2-(1-oxidotetrahydro-2H-thiopyran-4-yl)-2H-indazol-5-yl]-6-(trifluoromethyl)pyridine-2-carboxamide]
3 nM | COc1cc2nn(C3CCOCC3)cc2cc1NC(=O)c1cccc(C(F)(F)F)n1 [Example 1, N-[6-Methoxy-2-(tetrahydro-2H-pyran-4-yl)-2H-indazol-5-yl]-6-(trifluoromethyl)pyridine-2-carboxamide]
1 nM | COc1cc2nn(C3CCN(C)CC3)cc2cc1NC(=O)c1cccc(C(F)(F)F)n1 [Example 4, N-[6-Methoxy-2-(1-methylpiperidin-4-yl)-2H-indazol-5-yl]-6-(trifluoromethyl)pyridine-2-carboxamide]
3 nM | COc1cc2nn(C3CCS(=N)(=O)CC3)cc2cc1NC(=O)c1cccc(C(F)(F)F)n1 (single isomer, unassigned) [Example 21, N-[2-(1-Imino-1-oxidohexahydro-1λ^4-thiopyran-4-yl)-6-methoxy-2H-indazol-5-yl]-6-(trifluoromethyl)pyridine-2-carboxamide]
1 nM | COc1cc2nn(C3CCNCC3)cc2cc1NC(=O)c1cccc(C(F)(F)F)n1 [Example 2, N-[6-Methoxy-2-(piperidin-4-yl)-2H-indazol-5-yl]-6-(trifluoromethyl)pyridine-2-carboxamide]

Each compound was assayed on human PBMCs (assay: In vitro LPS-induced cytokine production in human PBMCs). Settings: 0.1 μg/ml LPS, 24 hours.
Assay type: cell-based
Experimental: In Vitro LPS (Lipopolysaccharide)-Induced Cytokine Production in Human PBMCs (Peripheral Blood Mononuclear Cells)
The effect of the inventive compounds of the general formula (I) on induced cytokine production in human PBMCs was examined. Cytokine production was induced here by LPS, a TLR4 ligand, which leads to activation of the IRAK4-mediated signal path.
The human PBMCs were obtained from anti-coagulated human whole blood. To this end, 15 ml of Ficoll-Paque (Biochrom, Cat. No. L6115) were initially charged in Leucosep tubes and 20 ml of human blood were added. After centrifugation of the blood at 800 g for 15 min at room temperature, the plasma including the platelets was removed and discarded. The PBMCs were transferred into centrifugation tubes and made up with PBS (phosphate-buffered saline) (Gibco, Cat. No. 14190). The cell suspension was centrifuged at room temperature at 250 g for 10 min and the supernatant was discarded. The PBMCs were resuspended in complete medium (RPMI 1640, without L-glutamine (PAA, Cat. No. E15-039), 10% FCS; 50 U/ml penicillin, 50 μg/ml streptomycin (PAA, Cat. No. P11-010) and 1% L-glutamine (Sigma, Cat. No. G7513)).
The assay was also carried out in complete medium. The PBMCs were sown in 96-well plates at a cell density of 2.5×10^5 cells/well. The compounds according to the invention were subjected to serial dilution in a constant volume of 100% DMSO and used in the assay at 8 different concentrations in the range from 10 μM to 3 nM such that the final DMSO concentration was 0.4% DMSO. Prior to the actual stimulation, the cells were then pre-incubated therewith for 30 min. […] Cell viability was determined using the CellTiter-Glo luminescent assay (Promega, Cat. No. G7571 (G755/G756A)) in accordance with the manufacturer's instructions. The amount of secreted TNF-α in the cell culture supernatant was determined using the Human ProInflammatory 9-Plex Tissue Culture Kit (MSD, Cat. No. K15007B) in accordance with the instructions of the manufacturer. […]

Compound | activity (secreted TNF-α, LPS-induced cytokine production in human PBMCs)
CC(C)(O)c1cc2nn(C3CCS(=O)(=O)CC3)cc2cc1NC(=O)c1cccc(C(F)(F)F)n1 [Example 44, N-[2-(1,1-Dioxidotetrahydro-2H-thiopyran-4-yl)-6-(2-hydroxypropan-2-yl)-2H-indazol-5-yl]-6-(trifluoromethyl)pyridine-2-carboxamide] | ≤ 1 µM
CC(C)(O)c1cc2nn(C3CCNCC3)cc2cc1NC(=O)c1cccc(C(F)(F)F)n1 [Example 46, N-[6-(2-Hydroxypropan-2-yl)-2-(piperidin-4-yl)-2H-indazol-5-yl]-6-(trifluoromethyl)pyridine-2-carboxamide] | ≤ 1 µM
